Results taken from paper PMC12621045, “Development of Purine and Pyrrolopyrimidine Scaffolds as Potent, Selective, and Brain Penetrant NUAK1 Inhibitors” (ACS Medicinal Chemistry Letters, 2025).

Key:
MLK3 = MLK3 (Homo sapiens, UniProt Q16584); experiment: 33P-ATP radiometric filter binding kinase panel; settings: read-out: % activity remaining
PRAK = PRAK (Homo sapiens, UniProt Q8IW41); experiment: 33P-ATP radiometric filter binding kinase panel; settings: read-out: % activity remaining
STK33 = STK33 (Homo sapiens, UniProt Q9BYT3); experiment: 33P-ATP radiometric filter binding kinase panel; settings: read-out: % activity remaining
STK33, sequence (Q9BYT3 whole entry): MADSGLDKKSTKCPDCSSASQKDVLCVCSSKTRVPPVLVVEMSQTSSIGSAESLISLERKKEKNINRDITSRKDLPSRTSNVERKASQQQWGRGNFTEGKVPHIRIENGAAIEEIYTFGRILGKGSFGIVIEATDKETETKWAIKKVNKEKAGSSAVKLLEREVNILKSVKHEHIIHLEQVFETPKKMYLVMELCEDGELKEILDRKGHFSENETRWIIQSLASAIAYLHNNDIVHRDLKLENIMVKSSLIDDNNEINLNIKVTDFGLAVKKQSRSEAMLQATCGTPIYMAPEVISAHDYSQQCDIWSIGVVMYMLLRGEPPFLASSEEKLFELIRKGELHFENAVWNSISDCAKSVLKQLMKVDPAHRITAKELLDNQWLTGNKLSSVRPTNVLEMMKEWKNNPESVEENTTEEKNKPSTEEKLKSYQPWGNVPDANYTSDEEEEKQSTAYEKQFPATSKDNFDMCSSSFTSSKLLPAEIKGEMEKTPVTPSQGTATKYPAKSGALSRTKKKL

TESK1 = TESK1 (Homo sapiens, UniProt Q15569); experiment: 33P-ATP radiometric filter binding kinase panel; settings: read-out: % activity remaining
Excerpt: (§1) targets in radiometric filter binding assay using 33P-ATP at the MRC PPU International Centre for

CK1γ2 = CK1γ2 (Homo sapiens, UniProt P78368); experiment: 33P-ATP radiometric filter binding kinase panel; settings: read-out: % activity remaining
CK1γ2, sequence (P78368 whole entry): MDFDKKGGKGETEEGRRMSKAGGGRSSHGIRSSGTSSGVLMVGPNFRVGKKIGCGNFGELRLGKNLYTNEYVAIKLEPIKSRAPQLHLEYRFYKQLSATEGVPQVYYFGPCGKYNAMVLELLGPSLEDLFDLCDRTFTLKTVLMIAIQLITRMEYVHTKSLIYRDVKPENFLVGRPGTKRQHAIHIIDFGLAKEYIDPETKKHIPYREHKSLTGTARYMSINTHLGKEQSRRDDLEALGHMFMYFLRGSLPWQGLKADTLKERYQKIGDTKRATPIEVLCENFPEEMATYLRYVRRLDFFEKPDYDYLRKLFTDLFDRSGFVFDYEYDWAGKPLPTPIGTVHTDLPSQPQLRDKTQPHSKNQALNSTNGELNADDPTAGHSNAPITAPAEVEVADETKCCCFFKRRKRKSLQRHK
Excerpt: as §1

MNK2 = MNK2 (Homo sapiens, UniProt Q9HBH9); experiment: 33P-ATP radiometric filter binding kinase panel; settings: read-out: % activity remaining
BRSK2 = BRSK2 (Homo sapiens, UniProt Q8IWQ3); experiment: 33P-ATP radiometric filter binding kinase panel; settings: read-out: % activity remaining
Excerpt: as §1

p38d MAPK = p38d MAPK (Homo sapiens, UniProt O15264); experiment: 33P-ATP radiometric filter binding kinase panel; settings: read-out: % activity remaining
Excerpt: as §1

MAPKAP-K2 = MAPKAP-K2 (Homo sapiens, UniProt P49137); experiment: 33P-ATP radiometric filter binding kinase panel; settings: read-out: % activity remaining
Excerpt: as §1

MELK = MELK (Homo sapiens, UniProt Q14680); experiment: 33P-ATP radiometric filter binding kinase panel; settings: read-out: % activity remaining
Excerpt: as §1

HIPK2 = HIPK2 (Homo sapiens, UniProt Q9H2X6); experiment: 33P-ATP radiometric filter binding kinase panel; settings: read-out: % activity remaining
HIPK2, sequence (Q9H2X6 whole entry): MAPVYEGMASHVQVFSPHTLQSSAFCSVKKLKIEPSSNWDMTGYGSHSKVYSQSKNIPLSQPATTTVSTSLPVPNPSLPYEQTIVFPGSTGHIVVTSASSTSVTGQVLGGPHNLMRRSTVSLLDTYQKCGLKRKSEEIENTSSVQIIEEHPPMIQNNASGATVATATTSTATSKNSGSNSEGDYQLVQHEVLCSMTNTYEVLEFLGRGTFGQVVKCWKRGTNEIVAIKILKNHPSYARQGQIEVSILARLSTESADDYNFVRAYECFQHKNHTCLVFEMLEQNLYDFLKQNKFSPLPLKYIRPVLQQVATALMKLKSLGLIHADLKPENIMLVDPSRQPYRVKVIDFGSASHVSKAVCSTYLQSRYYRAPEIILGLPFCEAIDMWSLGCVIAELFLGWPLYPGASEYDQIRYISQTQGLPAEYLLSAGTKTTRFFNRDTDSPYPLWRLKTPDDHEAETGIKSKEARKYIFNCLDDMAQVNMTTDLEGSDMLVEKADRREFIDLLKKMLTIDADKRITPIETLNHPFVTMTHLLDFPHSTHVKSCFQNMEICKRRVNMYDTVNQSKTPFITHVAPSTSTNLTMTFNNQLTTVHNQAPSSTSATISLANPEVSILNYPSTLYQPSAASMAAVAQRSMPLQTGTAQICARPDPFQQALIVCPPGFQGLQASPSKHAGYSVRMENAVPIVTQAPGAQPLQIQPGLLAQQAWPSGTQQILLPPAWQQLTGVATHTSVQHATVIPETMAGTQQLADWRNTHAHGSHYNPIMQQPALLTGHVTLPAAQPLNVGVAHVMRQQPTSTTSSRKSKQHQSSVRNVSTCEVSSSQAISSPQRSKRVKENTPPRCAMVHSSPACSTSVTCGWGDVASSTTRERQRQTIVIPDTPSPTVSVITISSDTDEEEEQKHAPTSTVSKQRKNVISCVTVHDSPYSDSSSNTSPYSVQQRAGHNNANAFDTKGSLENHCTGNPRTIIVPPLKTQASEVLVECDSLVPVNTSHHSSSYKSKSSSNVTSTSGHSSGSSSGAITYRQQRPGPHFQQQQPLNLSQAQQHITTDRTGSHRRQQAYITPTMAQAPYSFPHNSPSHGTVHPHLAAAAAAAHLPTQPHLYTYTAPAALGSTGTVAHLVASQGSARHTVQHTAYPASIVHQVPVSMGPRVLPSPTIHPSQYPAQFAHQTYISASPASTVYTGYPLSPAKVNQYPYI
Excerpt: as §1

GSK3b = GSK3b (Homo sapiens, UniProt P49841); experiment: 33P-ATP radiometric filter binding kinase panel; settings: read-out: % activity remaining
Excerpt: as §1

MKK6 = MKK6 (Homo sapiens, UniProt P52564); experiment: 33P-ATP radiometric filter binding kinase panel; settings: read-out: % activity remaining
DAPK1 = DAPK1 (Homo sapiens, UniProt P53355); experiment: 33P-ATP radiometric filter binding kinase panel; settings: read-out: % activity remaining
Excerpt: as §1

NEK2a = NEK2a (Homo sapiens, UniProt P51955); experiment: 33P-ATP radiometric filter binding kinase panel; settings: read-out: % activity remaining
EPH-A4 = EPH-A4 (Homo sapiens, UniProt P54764); experiment: 33P-ATP radiometric filter binding kinase panel; settings: read-out: % activity remaining
IRAK4 = IRAK4 (Homo sapiens, UniProt Q9NWZ3); experiment: 33P-ATP radiometric filter binding kinase panel; settings: read-out: % activity remaining
Excerpt: as §1

RIPK2 = RIPK2 (Homo sapiens, UniProt O43353); experiment: 33P-ATP radiometric filter binding kinase panel; settings: read-out: % activity remaining
OSR1 = OSR1 (Homo sapiens, UniProt O95747); experiment: 33P-ATP radiometric filter binding kinase panel; settings: read-out: % activity remaining
SGK1 = SGK1 (Homo sapiens, UniProt O00141); experiment: 33P-ATP radiometric filter binding kinase panel; settings: read-out: % activity remaining
Excerpt: as §1

MST2 = MST2 (Homo sapiens, UniProt Q13188); experiment: 33P-ATP radiometric filter binding kinase panel; settings: read-out: % activity remaining
MST2, sequence (Q13188 whole entry): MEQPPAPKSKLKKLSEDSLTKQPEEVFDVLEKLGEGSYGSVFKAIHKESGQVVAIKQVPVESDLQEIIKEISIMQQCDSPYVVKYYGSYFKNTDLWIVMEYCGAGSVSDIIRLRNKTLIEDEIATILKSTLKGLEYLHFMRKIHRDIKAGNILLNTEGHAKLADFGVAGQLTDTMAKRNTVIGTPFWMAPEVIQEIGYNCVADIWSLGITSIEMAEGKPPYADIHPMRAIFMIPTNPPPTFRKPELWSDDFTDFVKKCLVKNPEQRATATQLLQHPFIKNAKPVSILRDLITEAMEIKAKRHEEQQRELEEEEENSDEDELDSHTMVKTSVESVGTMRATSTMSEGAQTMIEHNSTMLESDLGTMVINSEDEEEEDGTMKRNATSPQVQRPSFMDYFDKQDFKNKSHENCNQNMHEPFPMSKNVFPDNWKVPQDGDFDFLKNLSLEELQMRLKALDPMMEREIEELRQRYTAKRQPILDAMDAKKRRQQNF
Excerpt: as §1
(§2) Kinase activity s.d. pIC50 activity s.d. pIC50

TGFBR1 = TGFBR1 (Homo sapiens, UniProt P36897); experiment: 33P-ATP radiometric filter binding kinase panel; settings: read-out: % activity remaining
Excerpt: as §1

MSK1 = MSK1 (Homo sapiens, UniProt O75582); experiment: 33P-ATP radiometric filter binding kinase panel; settings: read-out: % activity remaining
Excerpt: as §1, §2

[1] = Brain protein binding, equilibrium dialysis; settings: mouse, brain tissue
Description: ADMET and PK experimental methods
Microsomal stability: analysis was performed by Cyprotex Discovery. Briefly, test compounds in
(0.5 mg protein/mL) in the presence of NADPH (1 mM) at 37 °C. Aliquots were taken at time intervals
MS/MS conditions for compound remaining, allowing the determination of the half-life for the
MDR1-MDCK Permeability (bi-directional): was performed by Cyprotex Discovery. Briefly,
compounds were administered at 10 µM (1% DMSO final) to the apical or basolateral side of a
confluent monolayer of MDR1- MDCK cells, then incubated at 37 °C for 60 minutes before appearance
on the opposite side of the monolayer was determined LC-MS/MS. The efflux ratio (ER) is calculated
from the ratio of B-A to A-B permeabilities.
Plasma protein binding: was performed by ChemPartner Co. Ltd. Briefly, compounds in DMSO
(1 µM, 0.2% DMSO final) were added to mouse plasma or brain tissue and dialysed against buffer for
5 hrs at 37 °C. The compound concentration in each of the plasma and buffer compartments was
determined by mass spectrometry and used to calculate the percentage compound bound.
Pharmacokinetic analysis: was performed by ChemPartner Co. Ltd. Male CD-1 mice (N=3 per
timepoint) were intraperitoneally dosed at 5 mg/kg, as a cassette of five compounds, formulated in 10%
DMSO, 10% Solutol HS 15, 80% (50 mM citrate buffer pH3.0) at 0.5 mg/mL. At the designated time
points a blood sample was collected from the facial vein into K2EDTA tubes, and plasma separated by
centrifugation. Mice were euthanised by CO2 inhalation and brains were dissected and homogenised.
Compound levels were quantified by LC-MS/MS and PK parameters estimated by a non-compartmental
model using WinNonlin 8.2.

EIF2AK3 = EIF2AK3 (Homo sapiens, UniProt Q9NZJ5); experiment: 33P-ATP radiometric filter binding kinase panel; settings: read-out: % activity remaining
ERK2 = ERK2 (Homo sapiens, UniProt P28482); experiment: 33P-ATP radiometric filter binding kinase panel; settings: read-out: % activity remaining
Excerpt: as §1

CAMK1 = CAMK1 (Homo sapiens, UniProt Q14012); experiment: 33P-ATP radiometric filter binding kinase panel; settings: read-out: % activity remaining
PAK2 = PAK2 (Homo sapiens, UniProt Q13177); experiment: 33P-ATP radiometric filter binding kinase panel; settings: read-out: % activity remaining
Excerpt: as §1

PLK1 = PLK1 (Homo sapiens, UniProt P53350); experiment: 33P-ATP radiometric filter binding kinase panel; settings: read-out: % activity remaining
WNK1 = WNK1 (Homo sapiens, UniProt Q9H4A3); experiment: 33P-ATP radiometric filter binding kinase panel; settings: read-out: % activity remaining
Excerpt: as §1

ERK5 = ERK5 (Homo sapiens, UniProt Q13164); experiment: 33P-ATP radiometric filter binding kinase panel; settings: read-out: % activity remaining
Excerpt: as §1

ERK1 = ERK1 (Homo sapiens, UniProt P27361); experiment: 33P-ATP radiometric filter binding kinase panel; settings: read-out: % activity remaining
Excerpt: as §1

MAP4K5 = MAP4K5 (Homo sapiens, UniProt Q9Y4K4); experiment: 33P-ATP radiometric filter binding kinase panel; settings: read-out: % activity remaining
MAP4K5, sequence (Q9Y4K4 whole entry): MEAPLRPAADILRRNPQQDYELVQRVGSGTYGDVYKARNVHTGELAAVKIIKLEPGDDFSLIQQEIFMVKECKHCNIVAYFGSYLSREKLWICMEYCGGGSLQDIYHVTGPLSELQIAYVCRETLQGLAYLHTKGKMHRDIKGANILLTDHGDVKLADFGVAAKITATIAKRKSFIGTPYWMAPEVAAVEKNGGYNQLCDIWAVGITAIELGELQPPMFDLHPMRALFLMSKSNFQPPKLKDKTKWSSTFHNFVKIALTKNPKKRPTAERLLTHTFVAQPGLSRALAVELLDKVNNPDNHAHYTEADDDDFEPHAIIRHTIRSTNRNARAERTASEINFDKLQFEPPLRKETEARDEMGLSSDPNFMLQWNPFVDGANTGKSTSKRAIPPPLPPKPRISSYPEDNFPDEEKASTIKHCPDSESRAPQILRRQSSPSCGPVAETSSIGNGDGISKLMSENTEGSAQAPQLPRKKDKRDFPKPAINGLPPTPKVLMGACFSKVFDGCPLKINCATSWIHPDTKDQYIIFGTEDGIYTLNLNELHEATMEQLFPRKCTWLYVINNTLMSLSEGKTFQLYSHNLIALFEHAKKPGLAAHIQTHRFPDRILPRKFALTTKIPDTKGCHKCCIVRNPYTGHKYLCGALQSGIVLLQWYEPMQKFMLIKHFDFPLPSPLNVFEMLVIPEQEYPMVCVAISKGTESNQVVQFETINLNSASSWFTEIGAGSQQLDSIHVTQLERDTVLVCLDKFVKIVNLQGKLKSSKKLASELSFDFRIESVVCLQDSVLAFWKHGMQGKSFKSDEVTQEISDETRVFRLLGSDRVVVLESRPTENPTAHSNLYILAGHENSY
Excerpt: as §1

MAPKAP-K3 = MAPKAP-K3 (Homo sapiens, UniProt Q16644); experiment: 33P-ATP radiometric filter binding kinase panel; settings: read-out: % activity remaining
MAPKAP-K3, sequence (Q16644 whole entry): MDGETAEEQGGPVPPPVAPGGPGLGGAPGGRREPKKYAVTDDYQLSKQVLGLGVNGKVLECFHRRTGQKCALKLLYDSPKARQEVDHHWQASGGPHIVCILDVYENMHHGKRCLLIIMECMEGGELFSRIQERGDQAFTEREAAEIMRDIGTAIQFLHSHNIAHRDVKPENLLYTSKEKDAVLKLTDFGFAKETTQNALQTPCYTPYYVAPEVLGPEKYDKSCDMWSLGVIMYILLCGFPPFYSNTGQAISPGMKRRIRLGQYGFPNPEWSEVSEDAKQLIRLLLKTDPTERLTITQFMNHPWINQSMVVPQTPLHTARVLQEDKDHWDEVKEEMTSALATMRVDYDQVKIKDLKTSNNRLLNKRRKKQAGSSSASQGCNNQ
Excerpt: as §1

CDK4/cyclin D1 = CDK4/cyclin D1 (Homo sapiens, UniProt P11802); experiment: Adapta screening assay (Thermo Fisher); settings: read-out: CDK4/D1 % inhibition at 1 μM
PIM1 = PIM1 (Homo sapiens, UniProt P11309); experiment: 33P-ATP radiometric filter binding kinase panel; settings: read-out: % activity remaining
PIM1, sequence (P11309 whole entry): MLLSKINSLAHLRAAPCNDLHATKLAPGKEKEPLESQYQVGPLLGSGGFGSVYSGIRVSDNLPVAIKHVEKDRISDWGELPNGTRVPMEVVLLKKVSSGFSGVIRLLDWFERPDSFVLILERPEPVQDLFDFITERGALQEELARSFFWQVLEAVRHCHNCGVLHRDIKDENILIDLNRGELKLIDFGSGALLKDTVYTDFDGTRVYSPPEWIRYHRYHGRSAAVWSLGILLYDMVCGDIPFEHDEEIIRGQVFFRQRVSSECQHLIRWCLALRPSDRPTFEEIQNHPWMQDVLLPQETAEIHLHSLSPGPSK
Excerpt: as §1

MLK3, sequence (Q16584 whole entry): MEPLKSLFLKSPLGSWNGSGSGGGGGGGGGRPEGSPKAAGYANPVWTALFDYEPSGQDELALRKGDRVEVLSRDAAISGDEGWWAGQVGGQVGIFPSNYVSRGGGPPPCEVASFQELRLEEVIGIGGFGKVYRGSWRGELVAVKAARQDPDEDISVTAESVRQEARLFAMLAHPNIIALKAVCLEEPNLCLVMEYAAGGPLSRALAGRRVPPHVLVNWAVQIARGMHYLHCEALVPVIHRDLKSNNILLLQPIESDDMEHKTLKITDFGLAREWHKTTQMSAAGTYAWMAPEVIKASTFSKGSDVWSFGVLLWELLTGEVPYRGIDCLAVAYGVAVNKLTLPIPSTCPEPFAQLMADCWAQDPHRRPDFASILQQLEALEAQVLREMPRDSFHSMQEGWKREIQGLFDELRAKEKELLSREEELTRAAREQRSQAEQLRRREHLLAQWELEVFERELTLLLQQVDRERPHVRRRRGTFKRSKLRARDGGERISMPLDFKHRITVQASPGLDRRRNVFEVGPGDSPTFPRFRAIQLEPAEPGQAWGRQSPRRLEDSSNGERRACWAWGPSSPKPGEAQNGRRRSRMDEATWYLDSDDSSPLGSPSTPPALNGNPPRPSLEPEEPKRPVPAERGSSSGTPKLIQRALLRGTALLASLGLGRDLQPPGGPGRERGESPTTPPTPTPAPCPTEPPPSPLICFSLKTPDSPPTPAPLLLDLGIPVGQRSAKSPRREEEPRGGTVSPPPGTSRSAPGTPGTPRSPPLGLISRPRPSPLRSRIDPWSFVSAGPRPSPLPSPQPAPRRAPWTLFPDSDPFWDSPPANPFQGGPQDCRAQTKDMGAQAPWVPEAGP

CC(C)N1CCN(c2ccc(Nc3nc(OCC4CCOC(C)(C)C4)c4nc[nH]c4n3)cc2)CC1 (stereo not drawn) [Compound 20]
remaining activity at 1 µM (MLK3): 33% | remaining activity at 1 µM (PRAK): 98% | remaining activity at 1 µM (STK33): 96% | remaining activity at 1 µM (TESK1): 45% | remaining activity at 1 µM (CK1γ2): 49% | remaining activity at 1 µM (MNK2): 80% | remaining activity at 1 µM (BRSK2): 117% | remaining activity at 1 µM (p38d MAPK): 74% | remaining activity at 1 µM (MAPKAP-K2): 102% | remaining activity at 1 µM (MELK): 24% | remaining activity at 1 µM (HIPK2): 50% | remaining activity at 1 µM (GSK3b): 84% | remaining activity at 1 µM (MKK6): 106% | remaining activity at 1 µM (DAPK1): 69% | remaining activity at 1 µM (NEK2a): 78% | remaining activity at 1 µM (EPH-A4): 109% | remaining activity at 1 µM (IRAK4): 100% | remaining activity at 1 µM (RIPK2): 48% | remaining activity at 1 µM (OSR1): 82% | remaining activity at 1 µM (SGK1): 126% | remaining activity at 1 µM (MST2): 71% | remaining activity at 1 µM (TGFBR1): 95% | remaining activity at 1 µM (MSK1): 80% | fraction unbound at 5 h, 1 µM [1]: 0.039 | remaining activity at 1 µM (EIF2AK3): 115% | remaining activity at 1 µM (ERK2): 98% | remaining activity at 1 µM (CAMK1): 95% | remaining activity at 1 µM (PAK2): 90% | remaining activity at 1 µM (PLK1): 107% | remaining activity at 1 µM (WNK1): 90% | remaining activity at 1 µM (ERK5): 93% | remaining activity at 1 µM (ERK1): 97% | remaining activity at 1 µM (MAP4K5): 50% | remaining activity at 1 µM (MAPKAP-K3): 81% | inhibition at 1 µM (CDK4/cyclin D1): 63% | remaining activity at 1 µM (PIM1): 85%

CC(C)N1CCN(c2ccc(Nc3nc(OCC4CC4)c4cc[nH]c4n3)cc2)CC1 [Compound 23]
remaining activity at 1 µM (MLK3): 92% | remaining activity at 1 µM (PRAK): 108% | remaining activity at 1 µM (STK33): 51% | remaining activity at 1 µM (TESK1): 68% | remaining activity at 1 µM (CK1γ2): 16% | remaining activity at 1 µM (MNK2): 83% | remaining activity at 1 µM (BRSK2): 90% | remaining activity at 1 µM (p38d MAPK): 91% | remaining activity at 1 µM (MAPKAP-K2): 104% | remaining activity at 1 µM (MELK): 27% | remaining activity at 1 µM (HIPK2): 22% | remaining activity at 1 µM (GSK3b): 84% | remaining activity at 1 µM (MKK6): 119% | remaining activity at 1 µM (DAPK1): 18% | remaining activity at 1 µM (NEK2a): 73% | remaining activity at 1 µM (EPH-A4): 126% | remaining activity at 1 µM (IRAK4): 67% | remaining activity at 1 µM (RIPK2): 77% | remaining activity at 1 µM (OSR1): 44% | remaining activity at 1 µM (SGK1): 113% | remaining activity at 1 µM (MST2): 45% | remaining activity at 1 µM (TGFBR1): 114% | remaining activity at 1 µM (MSK1): 69% | fraction unbound at 5 h, 1 µM [1]: 0.002 | remaining activity at 1 µM (EIF2AK3): 39% | remaining activity at 1 µM (ERK2): 93% | remaining activity at 1 µM (CAMK1): 51% | remaining activity at 1 µM (PAK2): 95% | remaining activity at 1 µM (PLK1): 94% | remaining activity at 1 µM (WNK1): 77% | remaining activity at 1 µM (ERK5): 82% | remaining activity at 1 µM (ERK1): 104% | remaining activity at 1 µM (MAP4K5): 11% | remaining activity at 1 µM (MAPKAP-K3): 50% | inhibition at 1 µM (CDK4/cyclin D1): 39% | remaining activity at 1 µM (PIM1): 94%
